How the values were obtained:
[1] = target: T1, A. borkumensis YdaH (Alcanivorax borkumensis, UniProt Q0VR69); assay: isothermal titration calorimetry; type: binding
T1 sequence (Q0VR69 1-492): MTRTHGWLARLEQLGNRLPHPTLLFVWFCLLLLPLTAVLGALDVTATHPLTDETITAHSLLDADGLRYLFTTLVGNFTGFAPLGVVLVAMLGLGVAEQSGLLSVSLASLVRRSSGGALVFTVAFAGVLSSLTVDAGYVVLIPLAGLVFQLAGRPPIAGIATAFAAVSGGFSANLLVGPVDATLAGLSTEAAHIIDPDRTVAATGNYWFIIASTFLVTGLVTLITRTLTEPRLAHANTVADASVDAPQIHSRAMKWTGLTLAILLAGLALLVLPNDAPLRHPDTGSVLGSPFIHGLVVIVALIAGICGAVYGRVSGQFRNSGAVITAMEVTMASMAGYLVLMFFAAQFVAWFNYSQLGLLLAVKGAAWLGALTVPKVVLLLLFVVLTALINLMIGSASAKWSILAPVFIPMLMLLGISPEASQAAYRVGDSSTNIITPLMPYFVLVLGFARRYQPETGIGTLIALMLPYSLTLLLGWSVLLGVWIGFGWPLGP

[2] = target: A. borkumensis YdaH transporter (Alcanivorax borkumensis) (UniProt Q0VR69); assay: SEC

Molecule | Kd [1] | stoichiometry N [2]
Nc1ccc(S(=O)(=O)Nc2nccs2)cc1 [sulfathiazole] | 600 ± 20 nM | 
A. borkumensis YdaH transporter (from UniProt Q0VR69 1-492) (natural protein) |  | 2
Nc1ccc(S(=O)(=O)Nc2ncccn2)cc1 [sulfadiazine] | 7040 ± 540 nM | 
Cc1cc(C)nc(NS(=O)(=O)c2ccc(N)cc2)n1 [sulfamethazine] | 410 ± 30 nM | 

Reference: paper PMC4410182 (Nature communications, 2015)
